Assay results: US20220089575A1, “FARNESOID X RECEPTOR AGONISTS AND USES THEREOF” (Metacrine, Inc., priority 2017, published 2022)

biological target: T1, hFXR (Homo sapiens, UniProt Q96RI1); test: In Vitro FXR Assay (TK): TK-ECRE-luc reporter in transfected CV-1 cells; type: cell-based; conditions: 18 hrs, luminescence, maximum efficacy of <25% of the Fexarmine control classified as '+'
T1 construct: expressed in transfected cells; host or cells: CV-1 cells
T1 sequence (Q96RI1 1-486): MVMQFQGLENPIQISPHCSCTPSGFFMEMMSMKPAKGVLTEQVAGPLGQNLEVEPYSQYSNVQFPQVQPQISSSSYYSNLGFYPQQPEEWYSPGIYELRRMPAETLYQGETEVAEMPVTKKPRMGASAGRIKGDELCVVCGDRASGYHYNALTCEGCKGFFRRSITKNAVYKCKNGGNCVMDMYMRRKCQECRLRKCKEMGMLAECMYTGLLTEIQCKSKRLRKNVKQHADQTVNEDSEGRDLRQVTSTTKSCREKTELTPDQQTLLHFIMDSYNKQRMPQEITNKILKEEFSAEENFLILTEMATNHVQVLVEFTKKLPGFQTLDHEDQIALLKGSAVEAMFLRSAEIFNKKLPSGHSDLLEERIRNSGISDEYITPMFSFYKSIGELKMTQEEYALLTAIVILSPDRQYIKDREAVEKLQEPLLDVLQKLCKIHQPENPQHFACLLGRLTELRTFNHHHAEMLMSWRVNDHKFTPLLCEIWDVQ
T1 sequence (P19793 1-462 partner): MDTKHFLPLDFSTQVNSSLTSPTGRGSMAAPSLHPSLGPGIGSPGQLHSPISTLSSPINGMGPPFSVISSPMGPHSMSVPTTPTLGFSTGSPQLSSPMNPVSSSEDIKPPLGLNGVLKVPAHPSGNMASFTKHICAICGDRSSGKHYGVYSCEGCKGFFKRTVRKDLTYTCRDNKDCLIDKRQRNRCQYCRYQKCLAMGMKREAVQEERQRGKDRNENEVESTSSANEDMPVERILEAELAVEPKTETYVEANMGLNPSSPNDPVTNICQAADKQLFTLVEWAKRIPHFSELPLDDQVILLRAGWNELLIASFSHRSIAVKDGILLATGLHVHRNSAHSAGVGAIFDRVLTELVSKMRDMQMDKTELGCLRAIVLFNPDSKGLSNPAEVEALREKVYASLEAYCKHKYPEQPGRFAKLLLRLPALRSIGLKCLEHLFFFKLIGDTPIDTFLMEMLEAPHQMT
How it was run: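 CV-1 cells in DMEM with 10% charcoal-stripped FBS were co-transfected with hFXR, hRXR, TK-ECRE-luc reporter and pCMX-YFP plasmids. After 18 h, compounds serially diluted in DMSO were added for a further 18 h, then cells were lysed and luminescence read.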

Q: `COc1ccc([C@H]2CC[C@H](CN(c3cccc(-c4cnc(C5CC5)s4)c3)C(=O)[C@H]3CC[C@H](N(C)C(C)=O)CC3)CC2)cc1C` [Compound 25.10, trans-N-(3-(2-Cyclopropylthiazol-5-yl)phenyl)-N-((trans-4-(4-methoxy-3-methylphenyl)cyclohexyl)methyl)-4-(N-methylacetamido) cyclohexanecarboxamide] was tested. Which EC50 did it give?
A: ≤ 250 nM

Q: `CCC1CN(C(=O)O[C@H]2CC[C@H](C(=O)N(C[C@H]3CC[C@H](c4ccc(OC)c(C)n4)CC3)c3cc(-c4coc(C5CC5)n4)ccn3)CC2)C1` [Compound 7.90, trans-4-((4-(2-Cyclopropyloxazol-4-yl)pyridine-2-yl)((trans-4-(5-methoxy-6-methylpyridin-2-yl)cyclohexyl)methyl)carbamoyl)cyclohexyl 3-ethylazetidine-1-carboxylate] was tested. Which EC50 did it give?
A: ≤ 250 nM

Q: `COc1ccc([C@H]2CC[C@H](CN(c3cccc(-c4cnn(C5CC5)c4)c3)C(=O)[C@H]3CC[C@H](OC(=O)NCCNS(C)(=O)=O)CC3)CC2)cc1C` [Compound 26.24, trans-4-((3-(1-Cyclopropyl-1H-pyrazol-4-yl)phenyl)((trans-4-(4-methoxy-3-methylphenyl)cyclohexyl)methyl)carbamoyl)cyclohexyl (2-(methylsulfonamido)ethyl)carbamate] was tested. Which EC50 did it give?
A: ≤ 250 nM

Q: With `COCC(=O)N[C@H]1CC[C@H](C(=O)N(C[C@H]2CC[C@H](c3ccc(OC)c(C)c3)CC2)c2cccc(-c3cnc(C4CC4)s3)c2)CC1` [Compound 25.12, trans-N-(3-(2-Cyclopropylthiazol-5-yl)phenyl)-N-((trans-4-(4-methoxy-3-methylphenyl)cyclohexyl)methyl)-4-(2-methoxyacetamido) cyclohexanecarboxamide] as the compound, how does the EC50 read?
A: ≤ 250 nM

Q: With `COCCO[C@H]1CC[C@H](C(=O)N(C[C@H]2CC[C@H](c3ccc(OC)c(C)c3)CC2)c2cccc(-c3cnc(OC)s3)c2)CC1` [Compound 13.01, trans-N-((trans-4-(4-Methoxy-3-methylphenyl)cyclohexyl)methyl)-4-(2-methoxyethoxy)-N-(3-(2-methoxythiazol-5-yl)phenyl) cyclohexanecarboxamide] as the compound, how does the EC50 read?
A: ≤ 250 nM

Q: `COc1ccc([C@H]2CC[C@H](CN(c3cc(-c4coc(C5CC5)n4)ccn3)C(=O)[C@H]3CC[C@H](OC(=O)NC[C@H](O)CO)CC3)CC2)nc1C` [Compound 6.66, trans-4-((4-(2-Cyclopropyloxazol-4-yl)pyridine-2-yl)((trans-4-(5-methoxy-6-methylpyridin-2-yl)cyclohexyl)methyl)carbamoyl)cyclohexyl ((S)-2,3-dihydroxypropyl)carbamate] was tested. Which EC50 did it give?
A: 250 to 1000 nM

Q: How did the EC50 turn out when `CNC(=O)O[C@H]1CC[C@H](C(=O)N(C[C@H]2CC[C@H](c3ccc(OC)c(C)c3)CC2)c2cccc(-c3cnc(OC)s3)c2)CC1` [Compound 2.01, trans-4-(((trans-4-(4-Methoxy-3-methylphenyl)cyclohexyl)methyl)(3-(2-methoxythiazol-5-yl)phenyl)carbamoyl)cyclohexyl methylcarbamate] was run?
A: ≤ 250 nM

Q: With `COc1ccc([C@H]2CC[C@H](CN(c3cc(-c4cnc(C5CC5)s4)ccn3)C(=O)[C@H]3CC[C@H](OC(=O)N4CC(O)C4)CC3)CC2)cc1C` [Compound 7.03, trans-4-((4-(2-Cyclopropylthiazol-5-yl)pyridin-2-yl)((trans-4-(4-methoxy-3-methylphenyl)cyclohexyl)methyl)carbamoyl)cyclohexyl 3-hydroxyazetidine-1-carboxylate] as the compound, how does the EC50 read?
A: ≤ 250 nM

Q: How did the EC50 turn out when `COc1ccc([C@H]2CC[C@H](CN(c3cc(-c4coc(C5CC5)n4)ccn3)C(=O)[C@H]3CC[C@H](CNS(C)(=O)=O)CC3)CC2)nc1C` [Compound 26.26, trans-N-(4-(2-Cyclopropyloxazol-4-yl)pyridin-2-yl)-N-((trans-4-(5-methoxy-6-methylpyridin-2-yl)cyclohexyl)methyl)-4-(methylsulfonamidomethyl) cyclohexanecarboxamide] was run?
A: ≤ 250 nM

Q: Which EC50 does the source give for `COc1ccc([C@H]2CC[C@H](CN(c3cccc(-c4cnn(C5CC5)c4)c3)C(=O)[C@H]3CC[C@H](OC(=O)[C@H]4CC[C@H](O)CC4)CC3)CC2)cc1C` [Compound 10, trans-4-((3-(1-Cyclopropyl-1H-pyrazol-4-yl)phenyl)((trans-4-(4-methoxy-3-methylphenyl)cyclohexyl)methyl)carbamoyl)cyclohexyl trans-4-hydroxycyclohexanecarboxylate] here?
A: ≤ 250 nM

Q: `CN(C)c1ccc([C@H]2CC[C@H](CN(c3cccc(-c4coc(C5CC5)n4)c3)C(=O)[C@H]3CC[C@H](OC(=O)N4CC(O)C4)CC3)CC2)cn1` [Compound 7.63, trans-4-((3-(2-Cyclopropyloxazol-4-yl)phenyl)((trans-4-(6-(dimethylamino)pyridine-3-yl)cyclohexyl)methyl)carbamoyl)cyclohexyl 3-hydroxyazetidine-1-carboxylate] was tested. Which EC50 did it give?
A: ≤ 250 nM

Q: How did the EC50 turn out when `CNC(=O)O[C@H]1CC[C@H](C(=O)N(C[C@H]2CC[C@H](c3ccc(OC)c(C)n3)CC2)c2cc(-c3cnc(C4CC4)s3)ccn2)CC1` [Compound 5.03, trans-4-((4-(2-Cyclopropylthiazol-5-yl)pyridin-2-yl)((trans-4-(5-methoxy-6-methylpyridin-2-yl)cyclohexyl)methyl)carbamoyl)cyclohexyl methylcarbamate] was run?
A: ≤ 250 nM

Q: How did the EC50 turn out when `COc1ccc([C@H]2CC[C@H](CN(c3cc(-c4cnn(C5CC5)c4)ccn3)C(=O)[C@H]3CC[C@H](NC(=O)CO)CC3)CC2)cc1C` [Compound 26.32, trans-N-(4-(1-Cyclopropyl-1H-pyrazol-4-yl)pyridin-2-yl)-4-(2-hydroxyacetamido)-N-((trans-4-(4-methoxy-3-methylphenyl)cyclohexyl)methyl) cyclohexanecarboxamide] was run?
A: ≤ 250 nM

Q: With `COc1ccc([C@H]2CC[C@H](CN(c3cccc(-c4cnn(C(C)C)c4)c3)C(=O)[C@H]3CC[C@H](OC(=O)N4CC(O)C4)CC3)CC2)cc1C` [Compound 7.14, trans-4-((3-(1-Isopropyl-1H-pyrazol-4-yl)phenyl)((trans-4-(4-methoxy-3-methylphenyl)cyclohexyl)methyl)carbamoyl)cyclohexyl 3-hydroxyazetidine-1-carboxylate] as the compound, how does the EC50 read?
A: ≤ 250 nM

Q: With `CNC(=O)O[C@H]1CC[C@H](C(=O)N(C[C@H]2CC[C@H](c3ccc(OC)c(C)c3)CC2)c2cc(-c3cnc(C4CC4)s3)ccn2)CC1` [Compound 5.01, trans-4-((4-(2-Cyclopropylthiazol-5-yl)pyridin-2-yl)((trans-4-(4-methoxy-3-methylphenyl)cyclohexyl)methyl)carbamoyl)cyclohexyl methylcarbamate] as the compound, how does the EC50 read?
A: ≤ 250 nM

Q: With `COc1ccc([C@H]2CC[C@H](CN(c3cc(-c4cnn(C(C)C)c4)ccn3)C(=O)[C@H]3CC[C@H](OC(=O)NC4CC4)CC3)CC2)cc1C#N` [Compound 6.35, trans-4-(((trans-4-(3-Cyano-4-methoxyphenyl)cyclohexyl)methyl)(4-(1-isopropyl-1H-pyrazol-4-yl)pyridin-2-yl)carbamoyl)cyclohexyl cyclopropylcarbamate] as the compound, how does the EC50 read?
A: ≤ 250 nM

Q: How did the EC50 turn out when `COc1ccc([C@H]2CC[C@H](CN(c3cc(-c4cnn(C(C)C)c4)ccn3)C(=O)[C@H]3CC[C@H](OC(=O)N4CC(N(C)C)C4)CC3)CC2)nc1C` [Compound 7.58, trans-4-((4-(1-Isopropyl-1H-pyrazol-4-yl)pyridin-2-yl)((trans-4-(5-methoxy-6-methylpyridin-2-yl)cyclohexyl)methyl)carbamoyl)cyclohexyl 3-(dimethylamino)azetidine-1-carboxylate] was run?
A: ≤ 250 nM

Q: Which EC50 does the source give for `CNC(=O)O[C@H]1CC[C@H](C(=O)N(C[C@H]2CC[C@H](c3ccc(N(C)C)nc3)CC2)c2cccc(-c3cnn(C4CC4)c3)c2)CC1` [Compound 5.09, trans-4-((3-(1-Cyclopropyl-1H-pyrazol-4-yl)phenyl)((trans-4-(6-(dimethylamino)pyridin-3-yl)cyclohexyl)methyl)carbamoyl)cyclohexyl methylcarbamate] here?
A: ≤ 250 nM

Q: Which EC50 does the source give for `COc1ccc([C@H]2CC[C@H](CN(c3cc(-c4coc(C5CC5)n4)ccn3)C(=O)[C@H]3CC[C@H](OC(=O)N(C)CCO)CC3)CC2)nc1C` [Compound 6.87, trans-4-((4-(2-Cyclopropyloxazol-4-yl)pyridin-2-yl)((trans-4-(5-methoxy-6-methylpyridin-2-yl)cyclohexyl)methyl)carbamoyl)cyclohexyl (2-hydroxyethyl)(methyl)carbamate] here?
A: ≤ 250 nM

Q: How did the EC50 turn out when `COc1ccc([C@H]2CC[C@H](CN(c3cccc(-c4cnn(C5CC5)c4)c3)C(=O)[C@H]3CC[C@H](OC(=O)NCCO)CC3)CC2)cc1C` [Compound 4, trans-4-((3-(1-Cyclopropyl-1H-pyrazol-4-yl)phenyl)((trans-4-(4-methoxy-3-methylphenyl)cyclohexyl)methyl)carbamoyl)cyclohexyl (2-hydroxyethyl)carbamate] was run?
A: ≤ 250 nM
